Source: US8642640B2, “1-phenylpyrrole derivatives” (Exelixis, Inc., priority 2008, dated 2014)

What was measured:
[1] = biological target: T1, human mineralocorticoid receptor (hMR) (Homo sapiens, UniProt P08235); test: GAL4-hMR-LBD luciferase reporter assay in HEK293 cells with 1 nM aldosterone (Test Example 1); type: cell-based; details: for Emax: HEK293, read-out: Imax; for IC50: concentration showing Imax/2, HEK293, GAL4-hMR-LBD, 1 nM aldosterone, overnight, read-out: ICmax50;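 for Imax: 0% is DMSO-only control and 100% is 1 nM aldosterone alone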
T1 construct: expressed in transfected cells; host or cells: HEK293
T1 sequence (P08235 726-964 limits assumed): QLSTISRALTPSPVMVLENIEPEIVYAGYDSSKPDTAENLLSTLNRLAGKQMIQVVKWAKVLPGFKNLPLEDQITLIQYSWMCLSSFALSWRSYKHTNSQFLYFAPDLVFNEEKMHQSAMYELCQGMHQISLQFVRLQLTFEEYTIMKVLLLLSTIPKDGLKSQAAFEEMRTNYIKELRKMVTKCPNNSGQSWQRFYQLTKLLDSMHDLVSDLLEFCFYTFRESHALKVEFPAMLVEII
Description: A plasmid pM-hMR-LBD expressing GAL4-hMR receptor, which has a ligand binding domain (LBD, corresponding to approximately 308 amino acids at the carboxy terminus) of human mineralocorticoid receptor (hMR, NM_000901) bonded to a DNA binding domain of yeast transcription factor GAL4 (corresponding to 147 amino acids at the amino terminus), was prepared. Reporter assay was conducted by using a reporter plasmid (such as plasmid pFR-Luc of […] CLONING SYSTEMS) including a luciferase gene, having a sequence (UAS sequence) which binds to the DNA binding domain of GAL4.
The plasmid pM-hMR-LBD and the reporter plasmid as obtained above were gene transferred into renal cell line HEK293 of human fetus by lipofection. On the next day, cells were collected by trypsin treatment, and dispensed with DMEM culture medium containing 5% of FBS treated by activated charcoal, to a white 96-well plate (Costar) with the amount of 95 microliter per well.
The test compounds were used as dissolved in dimethyl sulfoxide at a predetermined concentration, and the test compounds suitably diluted with culture media were added to the cells on the white 96-well plate so that the final concentration becomes 0.1%. […] After the addition, cultivation was carried out overnight.
On the next day, the culture media was removed, and then luciferase substrate (Wako Pure Chemical Industries, Ltd.) was prepared in accordance with the attached document and were added to each well by 50 microliters. Stirring was conducted for approximately 30 minutes, and the amount of luminescence was measured for each well by using Analyst (Molecular Devices), to obtain luciferase activity. A graph which plots relative luciferase activity values, when the luciferase activity value of Control group 1 was taken as 0% and the luciferase activity value of Control group 2 was taken as 100%, for each of the amount of the test compound addition group was made.

[2] = Plasma concentration after intragastric administration to cynomolgus monkey (Test Example 2); type: in vivo; details: male cynomolgus monkey, 3 mg/kg intragastric in 0.5% MC, plasma, LC-MS/MS; for AUC, area under the plasma concentration versus time curve: noncompartment model; for Cmax: po, read-out: Cmax, maximum concentration
Description: Cynomolgus monkey (male) was used, and it was fasted from the day before administration of the test compound.
Administration samples were prepared by adding a 0.5% MC (methyl cellulose) solution to the Test Compound, so that the dose becomes 3 mg/2 mL/kg. Each of the administration samples was administered intragastrically to the cynomolgus monkey by using a tube. After the samples were administered, approximately 5 mL of 0.5% MC was administered. For each of the administration samples, a group of two cynomolgus monkeys was administered.
With respect to collection of blood, it was conducted by collecting approximately 0.5 mL of blood from crotch vein using a glass syringe treated with heparin, before administration, and 30 minutes, 1, 2, 4, 6, 8, 24 and 48 hours after administration. Blood was centrifuged (1,700×g, 15 min, 4° C.) to obtain plasma. Plasma was stored in a freezer (−20° C.) until pretreatment.
Preparation of standard solution and internal standard (IS) solution: Each of the Test Compounds was dissolved in DMSO (dimethyl sulfoxide) to prepare a solution of 10 mM each. Each of the compound solution was diluted with acetonitrile, and thus standard solution was prepared. Further, niflumic acid (Wako Pure Chemical Industries, Ltd.) was dissolved in DMSO at the concentration of 2 mM, followed by dilution with acetonitrile to prepare an IS solution of 2 μM.
Pretreatment of plasma samples: 20 μL of plasma sample was collected, and then 25 μL of purified water, 100 μL of acetonitrile, and 100 μL of methanol was added. For the preparation of a calibration curve, 25 μL of purified water, 20 μL of each of the standard solutions (acetonitrile solution), 80 μL of acetonitrile, and 100 μL of methanol were added to 20 μL of blank plasma. 40 μL of the acetonitrile solution of IS was added to all of the samples, and then the samples were stirred, filtered by suction using Captiva filter plate (Varian, Inc.), and then the filtrate was used as the sample for LC-MS/MS analysis.
Quantitative Determination of Test Compound: Concentration in plasma was analyzed by LC-MS/MS method for each Test Compound.
Analysis: Pharmacokinetic parameter was calculated from concentration of each of the drugs in plasma, by using WinNonlin Professional (Ver. 4.0.1, Pharsight Corporation). Here, Noncompartment model was used as the model for parameter calculation.

Row | Structure (SMILES) | Emax [1] [%] | IC50 [1] [nM] | AUC, area under the plasma concentration versus time curve [2] [µg·h/mL] | Cmax [2] [ng/mL]
1 | Cc1c(C(=O)Nc2ccc(S(C)(=O)=O)cc2)cc(CCF)n1-c1ccc(F)cc1OC(F)F (single isomer, unassigned) [Example 54 - isomer A, 1-[2-(Difluoromethoxy)-4-fluorophenyl]-5-(2-fluoroethyl)-2-methyl-N-[4-(methylsulfonyl)phenyl]-1H-pyrrole-3-carboxamide] | 99 | 6.5 | 11.41 | 970
2 | Cc1c(C(=O)Nc2ccc(S(C)(=O)=O)cc2)cc(C[C@H](C)O)n1-c1ccc(F)cc1OC(F)F (single isomer, unassigned) [Example 9 - isomer A] | 84 | 18 | 23.95 | 2350
3 | Cc1c(C(=O)Nc2ccc(S(C)(=O)=O)cc2)cc(C[C@H](C)O)n1-c1ccc(Cl)cc1C(F)(F)F (single isomer, unassigned) [Example 6 - isomer A] | 79 | 3.1 | 30.28 | 1730
4 | Cc1c(C(=O)Nc2ccc(S(C)(=O)=O)cc2)cc(C[C@H](C)O)n1-c1ccc(F)cc1Cl (single isomer, unassigned) [Example 40 - isomer A] | 91 | 9.6 | 15.11 | 1300
5 | Cc1cc(Cl)ccc1-n1c(CCF)cc(C(=O)Nc2ccc(S(C)(=O)=O)cc2)c1C (single isomer, unassigned) [Example 51 - isomer A, 1-(4-Chloro-2-methylphenyl)-5-(2-fluoroethyl)-2-methyl-N-[4-(methylsulfonyl)phenyl]-1H-pyrrole-3-carboxamide] | 124 | 11 | 10.94 | 830

Continued by falling IC50 [1], values first:

Row | Emax [1] [%] | IC50 [1] [nM] | AUC, area under the plasma concentration versus time curve [2] [µg·h/mL] | Cmax [2] [ng/mL] | Structure (SMILES)
6 | 114 | 14 | 0.03 | < 10 | Cc1cc(C(=O)Nc2ccc(S(C)(=O)=O)cc2)c(C)n1-c1ccccc1C(F)(F)F [Reference compound A, 1-[2-(trifluoromethyl)phenyl]-2,5-dimethyl-N-[4-(methylsulfonyl)phenyl]-1H-pyrrole-3-carboxamide, reference compound]
7 | 93 | 12 | 0.17 | 10 | Cc1cc(C(=O)Nc2ccc(S(C)(=O)=O)cc2)c(C)n1-c1ccc(F)cc1C(F)(F)F [Reference compound B, 1-[4-fluoro-2-(trifluoromethyl)phenyl]-2,5-dimethyl-N-[4-(methylsulfonyl)phenyl]-1H-pyrrole-3-carboxamide, reference compound]
8 | 89 | 7.3 | 24.81 | 1600 | Cc1c(C(=O)Nc2ccc(S(C)(=O)=O)cc2)cc(C[C@H](C)O)n1-c1ccc(Cl)cc1OC(F)F (single isomer, unassigned) [Example 11 - isomer A]
